Source: patent US11357777B2, “Use of sGC stimulators for the treatment of nonalcoholic steatohepatitis (NASH)” (Cyclerion Therapeutics, Inc., priority 2016, dated 2022)
Entries after “also recorded” stand apart in the source; their conditions may differ. Like-named read-outs stand apart in the source and are kept apart here.

Assays:
primary white adipocytes = settings: cited from earlier work
human brown adipocytes = settings: cited from earlier work
[1] = tested on: WT mice fed a high fat diet (HFD); settings: cited from earlier work
[2] = tested on: alpha-SMA (alpha-smooth muscle actin) mRNA expression; assay: CCl4-induced changes in liver fibrosis marker in C57BL/6 mice; assay type: in vivo
Procedure: A pilot study using male C57BL/6 mice was carried out to explore the changes in liver fibrosis biomarker after one single injection of carbon tetrachloride (CCl4) given by intraperitoneal (IP) administration and the effect of several substances, including an sGC stimulator, in this model. Injection of CCl4 in mice results in elevation of alpha-SMA (alpha-smooth muscle actin) mRNA expression and this can be used as a biomarker of fibrosis in the liver. A reduction in the expression levels of this biomarker and reversal towards the normal levels, upon administration of an sGC stimulator, can be used to assess the potential utility of the compound in the treatment of liver fibrosis.
Mice used were 8 weeks old at receipt, healthy, and unused in other experimental procedures. Housing and care were as specified in the USDA Animal Welfare Act (9 CFR, Parts 1, and 3) and as described in the Guide for the Care and Use of Laboratory Animals from the National Research Council. Environmental conditions in housing rooms were set at the following ranges for acclimation and naive groups: temperature: 68±5° F. […], humidity: 50±:20%; light cycle: 12 hour light/12-hour dark; air changes: ten or more changes per hour with 100% HEPA filtered fresh air. Mice were given regular chow and water ad libitum and were not fasted overnight prior to compound administration.
CCl4 was dosed once to all animals, via intraperitoneal administration (IP) at a concentration of 15 μl (dissolved in 85 μl of corn or olive oil) and a dose volume of 100 μl per 30 g of mouse. Compound A was dosed to mice via oral administration (PO, by oral gavage), BID for 3 days at a concentration of 3 mg/mL (0.5% Methylcellulose) and a dose volume of […]. The single dose of CCl4 was administered two hours after the first dose of Compound A. The second dose of Compound A was administered 7 hours after the first dose. After three days of dosing, the animals were sacrificed and plasma and liver samples obtained for analysis.
Total RNA was extracted from isolated tissues by adding 1 ml Trizol and a stainless steel bead to each sample, and homogenized using a TissueLyser II at the highest speed (30 Hz) for 2 minutes at room temperature. After homogenization, 200 μl chloroform was added to each homogenized sample. The homogenate was vortexed briefly and left in an upright position at room temperature for 2-5 minutes until phase separation became visible by eye. Samples were centrifuged for 15 minutes at the highest speed (13,200 rpm) at 4° C. in an Eppendorf centrifuge.
After 15 minutes at the highest speed (13,200 rpm) centrifugation at 4° C., the supernatant of each sample (˜500 μl) was transferred into a new RNase-free tube. […]

[3] = Distribution of sGC stimulators in tissues, rats (liver and plasma by LC-MS/MS); assay type: in vivo; settings: Wistar, rat, 2 h post fifth dose, male rats, read-out: total Liver:Plasma ratio
Procedure: The purpose of this experiment was to determine compound concentrations in the plasma and tissues of animals dosed with sGC stimulators for 5 days Q.D.
In a first experiment, the sGC stimulator Compound B (described previously in Example 2) was dosed for 5 Days Q.D. to male Wister rats. Rats were divided into four study groups and dosed according to the below table:
The animals were dosed daily for five consecutive days according the table above. On each day of dosing, frozen aliquots of each dosing solution were thawed and the animals were weighed and dosed accordingly. On day 5, two hours post the fifth dose, blood was collected by orbital bleed. Blood samples were collected in EDTA tubes pre-loaded with 5 μL of 100 mM IBMX Plasma was be separated by centrifugation for 10 minutes at 4° C. and then stored at −80° C.
A Ketamine/Xylazine/pbs solution as a 5:1:4 ratio was administered I.P. at 1 ul per gram. Once the rat was fully anesthetized (as determined by checking its reflexes) and while the heart was still beating, a needle was inserted into the left ventricle. Approximately 20 mls of PBS/IBMX/heparin solution were then perfused. The right atrium was snipped, and perfusion continued for approximately 10 additional mls (30 mls total). At this point, the femoral artery was snipped and perfusion was continued until there was no longer blood (only clear fluid) collecting in the abdominal cavity. Several tissues, including liver, were isolated and weighed followed by snap freezing.
A second separate and similar experiment was carried out with Compound C. The structure of Compound C is depicted below. The preparation and characterization of this compound was described in patent application publication WO2014144100, published 18 Sep. 2014.
For this second experiment, rats were divided into four study groups and dosed according to the below table:
Samples were analyzed using liquid chromatography (LC) with tandem mass spectrometric detection (MS/MS) using positive electrospray ionization. The standard curve range was from 0.1 to 400 ng/mL. […]
In order to prepare the tissues for measurement, the naïve livers and the livers isolated after treatment were removed from the −80° C. freezer and placed on liquid nitrogen. The liver weight was recorded and then the tissue placed in a Geno grinding vial containing two 7/16″ steel beads. […] Approximately 200 mg of tissue from each sample was weighed and recorded. […] The samples were analyzed by LC-MS/MS.
Total liver and plasma concentrations were measured and liver concentrations were corrected for total liver weight. Liver: Plasma ratios were determined by dividing liver compound concentration by the plasma compound concentration. […]

rat animal model of NASH = settings: cited from earlier work
OB/OB mice = settings: cited from earlier work
[4] = 8 weeks at 300 mg/kg/24 hours in food and intraperitoneally at 1 mg/kg

In the case of Nc1nc(-c2nn(Cc3ccccc3F)c3ncccc23)nc(N)c1N1CCOCC1 [BAY 41-8543], the “browning of primary white adipocytes” value (primary white adipocytes) is listed as “induces ‘browning’; also recorded: induces “browning””, the “differentiation of human brown adipocytes” value (human brown adipocytes) is listed as “enhances” and the “lipid uptake into BAT” value [1, 4] is listed as “enhances”. For the same compound, the whole-body energy expenditure [1, 4] was “increases”, the “triglyceride content in the liver” value ([1]; WT mice fed a HFD, obese phenotype, compared to mice fed regular chow) was “significant reduction” and the diabetic phenotype ([1]; mouse, in vivo) was “improves”. For the same compound, the “diet-induced weight gain and liver steatosis” value ([1]; mouse, in vivo) was “protects against” and the “weight loss in established obesity” value ([1]; mouse, in vivo) was “induces weight loss”.
In the case of NC(=O)[C@@](O)(CNc1nc(-c2cc(-c3ccon3)n(Cc3ccccc3F)n2)ncc1F)C(F)(F)F [Compound A], the “relative reduction of the increased alpha-SMA mRNA expression levels” value ([2]; 30 mg/kg dose) is reported as “about 66%”, the “reduction of alpha-SMA expression compared with pirfenidone-treated samples” value ([2]; PO BID for 3 days, single IP CCl4) is reported as “significantly more pronounced” and the “reduction of elevated levels of alpha-SMA expression compared to vehicle” value ([2]; PO BID for 3 days, single IP CCl4, vs vehicle (0.5% methyl cellulose)) is reported as “statistically significant reduction”.
NC(=O)[C@](O)(CNc1nc(-c2cc(-c3ccon3)n(Cc3ccccc3F)n2)ncc1F)C(F)(F)F [Compound C] gave a Kp ([3]; 1 mg/kg PO Q.D. 5 days) of 6 and a Kp ([3]; 10 mg/kg PO Q.D. 5 days) of 8.
For CC(=O)N[C@@H](CSN=O)C(=O)O [SNAP, S-Nitroso-N-acetylcysteine], the “onset of NASH” value (rat animal model of NASH) is given as “prevent the onset of NASH” and the “effect on NASH” value (OB/OB mice) is given as “prevent and reverse NASH”.
With Cc1ccc(=O)n(-c2ccccc2)c1 [pirfenidone, reference compound] the “relative reduction of the increased alpha-SMA mRNA expression levels” value ([2]; 400 mg/kg dose) was “about 20%”.
